Assay results reported in publication PMC12363211, “Rationally designed self-assembled peptide nanofibers provoke robust humoral immunity against nervous necrosis virus” (Journal of Virology, 2025).
Marks after values point to notes of the source that are not given here.

Legend:
grouper = experiment: In vivo safety: survival, weight and pathology of vaccinated grouper; settings: i.p. 2 mM, 28-day period
Procedure: NNV-free pearl gentian grouper (Epinephelus lanceolatus × Epinephelus fuscoguttatus) juveniles (5.12 ± 0.63 g) were purchased from a commercial fish farm (Wenchang, Hainan, China). Real-time quantitative polymerase chain reaction (qPCR) was used to detect NNV in purchased fish. Primers of NNVdetection F: […] and NNVdetection R: […] were used for NNV detection. Grouper were reared in a recirculating water system with filtered seawater at 28.0 ± 1.0°C. Each tank contains 50 L seawater with continuous aeration. Fish were fed twice daily and acclimated for 15 days before experiments.
Safety evaluation of the CP^64-83-Q11 nanofiber
The safety evaluation of the synthesized nanofiber was assessed using in vitro and in vivo models. For the in vitro cytotoxicity evaluation, the standard MTT assay was employed. GF-1 cells and grouper macrophages were seeded into 96-well plates at a density of 5 × 10⁵ cells per well. These cells were then exposed to varying concentrations (1, 5, 10, 20, and 40 µg/mL) of Q11, CP^64-83, CP, or CP^64-83-Q11 for 24 h. […] Absorbance was then measured at 490 nm using a microplate reader. Cell viability was calculated as follows: Cell viability = (ODtreatment group − ODblank)/(ODcontrol group − ODblank) × 100%. […] Additionally, the initial and final weights of the fish were monitored throughout the 28-day period.

[1] = Nanofiber self-assembly and morphology (TEM); format: physicochemical; settings: in the salts (pH = 7)
Procedure: CP^64-83-Q11 nanofiber synthesis and characteristics
Q11, CP^64-83, and CP^64-83-Q11 peptides were synthesized and purified by Genecreate Co. (Wuhan). […] The morphology of the CP^64-83-Q11 was determined by transmission electron microscopy (TEM) using a Hitachi Model H-7700 microscope (Hitachi, Japan). The particle size of reassembled CP^64-83-Q11 was determined using a Zetasizer (nano ZS90, Malvern Panalytical, UK). The secondary structure of CP^64-83-Q11 nanovaccine was analyzed by circular dichroism (CD) spectra (Chirascan V100, Applied Photophysics, UK).

Sequence: QQKFQFQFEQQ [Q11, Q11 peptide (…), a minimalist self-assembling motif]
- Survival rate (grouper; unchallenged vaccinated grouper, 78 fish per group, all groups incl. control share letter a): 98.26 ± 3.37^a %
- Final weight (grouper; vaccinated grouper, initial weight 5.12 ± 0.63 g, all groups incl. control (8.96 ± 1.02) share letter a): 8.72 ± 0.56^a g
- self-assembly into nanofibers [1]: could self-assemble into nanofibers in the salts (pH = 7)
